Measurements published in patent publication US9113629B2, “4-amino-6-(4-substituted-phenyl)-picolinates and 6-amino-2-(4-substituted-phenyl)-pyrimidine-4-carboxylates and their use as herbicides” (DOW AGROSCIENCES LLC, priority 2013, dated 2015).

melting point [°C] | Compound
145 to 147 | COC(=O)c1nc(-c2cc(F)c(I)cc2F)c(Br)c(N)c1Cl [Compound 100]
77 to 78 | C=Cc1c(C(=O)OC)nc(-c2ccc(C(F)(F)F)c(F)c2)c(F)c1N [Compound 12]
131 to 132 | COc1c(N)nc(-c2cc(F)c(I)cc2F)nc1C(=O)O [Compound 119]
164.2 to 166.8 | C#Cc1ccc(-c2nc(C(=O)OC)c(Cl)c(N)c2Cl)cc1 [Compound 34]
143.5 to 144.5 | COC(=O)c1nc(-c2cc(F)c(F)cc2F)c(F)c(N)c1Cl [Compound 200, Methyl 4-amino-3-chloro-5-fluoro-6-(2,4,5-trifluorophenyl)picolinate]
186 to 187 | COC(=O)c1nc(-c2cc(F)c(Br)cc2F)nc(N)c1OC [Compound 2]
145 to 148 | COC(=O)c1nc(-c2ccc(C#N)cc2)c(C)c(N)c1Cl [Compound 83, Methyl 4-amino-3-chloro-6-(4-cyanophenyl)-5-methylpicolinate]
177 to 180 | COC(=O)c1nc(-c2ccc(C#N)c(F)c2)c(C)c(N)c1Cl [Compound 155, Methyl 4-amino-3-chloro-6-(4-cyano-3-fluorophenyl)-5-methylpicolinate]
